Data published in patent publication US7514579B2, “Boronic chalcone derivatives and uses thereof” (Johns Hopkins University, priority 2002, dated 2009).

Columns and labels:
Conditions in all cases: MTT growth inhibition, 96 hours exposure
[1] = system: wtMCF7 (estrogen dependent) human breast cancer cells; experiment: MTT survival assay, Wt-MCF7 cells; assay type: cell-based
Procedure: (§1) The cytotoxicity of the boronic chalcone analogs and carboxylic acid chalcones were evaluated and compared by MTT survival assays of human breast cancer MDA-MB-435, MDA-MB-231, Wt-MCF7, and MCF-10A cells treated at different concentrations of the analogs.
(§2) Human breast cancer MDA-MB-231 (estrogen independent) and wtMCF7 (estrogen dependent) human breast cancer cells were maintained in DMEM medium supplemented with 5% fetal bovine serum, 2 mM glutamine, and 100 units/mL penicillin/streptomycin. MDA-MB-435 (estrogen independent) human breast cancer cells were maintained in IMEM medium supplemented with 5% fetal bovine serum and 2 mM glutamine. Each cell line used has unique growth characteristics spanning the spectrum of tumor invasiveness, differentiation and estrogen dependence. Normal breast epithelial cell lines, MCF-10A and MCF-12A, were maintained in 5% and 10% horse serum in DMEM:Ham's F12 media, respectively, supplemented with 2 mM glutamine, 100 units/mL penicillin/streptomycin, 0.02 μg/mL EGF, 0.01 mg/mL insulin, and 0.1 μg/mL cholera toxin.
(§3) Cells were incubated at 37° C. in a 5% CO2 atmosphere. The MTT colorimetric assay was used to determine growth inhibition (Mosmann, T., J. Immunol. Methods, 1983, 65, 55-63). Cells were plated in 96-well plates and allowed to attach for 24 hours. Chalcone derivatives based on compounds 20 and 21 below were dissolved in DMSO at 10 mM concentrations. Cells were expose in quadruplicate well to chalcone concentrations of 0.5-100 µM for 96 hours. After 96 hours the media was aspirated, and 100 µL of 1 mg/mL MTT solution (Sigma Chemical Co.) diluted in serum free media was added to each well. After 4 hours of incubation, the MTT solution was removed and 200 µL of 1:1 (v/v) solution of DMSO:ethanol was added to each well to dissolve formazan crystals. The absorbance at A540nm was determined on a plate reader. IC50 values were determined from log plots of percent of control vs. concentration. Each compound was assayed twice in quadruplicate. Analogs 3g and 9 have been previously described (Stoll R., et al., supra; Kussie, P. H., et al., supra) and were included for comparative purposes.

[2] = system: MDA-MB-231 (estrogen independent) human breast cancer cells; experiment: MTT survival assay, MDA-MB-231 cells; assay type: cell-based
Procedure: as §1, §2, §3

[3] = system: MCF-10A normal breast epithelial cell line; experiment: MTT survival assay, MCF-10A cells; assay type: cell-based, human
Procedure: as §1, §2, §3

[4] = system: MDA-MB-435 (estrogen independent) human breast cancer cells; experiment: MTT survival assay, MDA-MB-435 cells; assay type: cell-based
Procedure: as §1, §2, §3

[5] = system: MCF-12A normal breast epithelial cell line; experiment: MTT survival assay, MCF-12A cells; assay type: cell-based, human
Procedure: as §1, §2, §3

Row | Compound | IC50 [1] [µM] | IC50 [2] [µM] | IC50 [3] [µM] | IC50 [4] [µM] | IC50 [5] [µM]
1 | O=C(O)COc1ccc(C(=O)/C=C/c2ccc(I)cc2)cc1 [Compound 3f] | 9 | 44 | 44 | 18 | 38
2 | O=C(/C=C/c1ccc(F)c(F)c1)c1ccc(B(O)O)cc1 [Compound 3d] | 7.8 | 8.8 | 18 | 8.8 | 39
3 | O=C(/C=C/c1ccc(Cl)c(Cl)c1)c1ccc(B(O)O)cc1 [Compound 3b] | 5 | 9.5 | 18 | 3.5 | 11
4 | O=C(O)COc1ccc(C(=O)/C=C/c2ccc(Cl)c(Cl)c2)cc1 [Compound 9, reference compound] | 15 | 18 | 12 | 13 | 28
5 | O=C(/C=C/c1ccc(I)cc1)c1ccc(OCB(O)O)cc1 [Compound 7] | 9.5 | 11 | 38 | 18 | 100
6 | O=C(/C=C/c1ccc(F)c(Br)c1)c1ccc(B(O)O)cc1 [Compound 3e] | 8.5 | 9.5 | 17 | 8.8 | 38
7 | O=C(/C=C/c1ccc(I)cc1)c1ccc(B(O)O)cc1 [Compound 3a] | 7 | 8.8 | 75 | 10 | 63
8 | O=C(/C=C/c1ccc(I)cc1)c1ccc(O)cc1 [Compound 6] | 7 | 8 | 15 | 4.5 | 30
9 | O=C(O)COc1ccc(C(=O)/C=C/c2ccc(Cl)c(Cl)c2)cc1 [Compound 3g, reference compound] | 13 | 9 | 13 | 9 | 15
10 | O=C(/C=C/c1ccc(F)c(Cl)c1)c1ccc(B(O)O)cc1 [Compound 3c] | 6 | 8.5 | 25 | 16 | 22
11 | O=C(/C=C/c1ccc(Cl)c(Cl)c1)c1ccc(B(O)O)cc1 [Compound 8] | 5.5 | 8 | 18 | 4 | 15
